Results on eleven compounds are retold here after US10994015B2, “EGFR proteolysis targeting chimeric molecules and associated methods of use” (Arvinas Operations, Inc., priority 2016, dated 2021).

Assay [1] concerns the target EGFR-wt (MDA-MB-231 or MCF7 or A549 or OVCAR8) (Homo sapiens (Human), UniProt P00533). Briefly: EGFR protein degradation assay (Western blot). Type of assay: cell-based. The note with it: 72 hours, 300 nM to 10 nM. The gist of the method: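 EGFR degradation was assessed by Western blot. Cells expressing the appropriate EGFR were seeded in 6-well plates (300,000 cells per well) and adhered overnight. Media was removed, cells were washed with cold phosphate-buffered saline, scraped into 400 μl Cell Signaling lysis buffer plus protease inhibitor cocktail, and spun once at 10 000 rpm for 10 minutes. After BCA quantification, loading buffer and reducing agent were added. Gels loaded with 10 μg protein ran at 165V for 2 hours, and bands were visualized by chemiluminescence.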
In general terms: Immunoblotting shows a protein as a band on a membrane.

The target in assay [2] is EGFR L858R/T790M/C797S triple mutant (H520*) (Homo sapiens (Human), UniProt P00533, C797S/L858R/T790M). Briefly: EGFR protein degradation assay (Western blot). The note with it: 72 hours, 300 nM to 10 nM. Type of assay: cell-based. In a few lines:
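EGFR loss in the triple-mutant line measured by immunoblot: clarified lysates normalised by BCA, run on 4-12% Bis-Tris gels, blotted to PVDF, probed with HRP anti-rabbit secondary. Before lysis, cells were dosed from 1, 0.3, 0.1, 0.03 and 0.01 mM DMSO stocks (not final concentrations) after overnight culture at 37° C.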

In a further assay the target is EGFR Exon20NPG (Homo sapiens (Human), UniProt P00533, INS770NPG). Briefly: TR-FRET assay for ERBB kinases. The note with it: geometric mean if measured more than once. Format: biochemical. The gist of the method: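 Phosphorylation of fluorescein-labeled poly-GluTyr read as TR-FRET using Tb-pY20 antibody after EDTA stop, with 340 nm excitation. Kinase reaction ran 10 min at room temperature following 10 min compound pre-incubation; substrate mix held 3 mM ATP and 30 µM peptide before addition. Buffer was HEPES pH 7.5.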
(TR-FRET usually uses a lanthanide donor and a delayed reading to cut background.)

Another assay addresses EGFR L858R/T790M/C797S (Homo sapiens (Human), UniProt P00533, C797S/L858R/T790M). The assay is described as follows: TR-FRET assay for ERBB kinases. Type of assay: biochemical. The note with it: geometric mean if measured more than once. The gist of the method: (§1)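 Three-fold DMSO dilution series of each compound is diluted 10-fold into HEPES buffer (pH 7.5, NaCl, MgCl2, DTT, Pluronic). Enzyme is added for a 10 min pre-incubation. ATP/peptide mix (3 mM ATP, 30 uM substrate as added) starts a 10 min room-temperature reaction, halted with EDTA and Tb antibody.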

The target in the next assay is EGFR L858R/T790M (Homo sapiens (Human), UniProt P00533, L858R/T790M). The assay is described as follows: TR-FRET assay for ERBB kinases. Format: biochemical. The note with it: geometric mean if measured more than once. The gist of the method:
as §1

In a further assay the target is EGFR WT (Homo sapiens (Human), UniProt P00533). The assay is described as follows: TR-FRET assay for ERBB kinases. Format: biochemical. The note with it: geometric mean if measured more than once. In a few lines:
as §1

The target of assay [3] is EGFR L858R/T790M double mutant (H1975) (Homo sapiens (Human), UniProt P00533, L858R/T790M). The assay is described as follows: EGFR protein degradation assay (Western blot). Format: cell-based. The note with it: 72 hours, 300 nM to 10 nM. The gist of the method: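 EGFR protein levels were measured by immunoblotting. Lysate protein was quantified by BCA, and 10 μg per sample was separated by SDS/PAGE at 165V for 2 hours and transferred to PVDF. Membranes were blocked in TBS-T with 5% milk for 1 hour, probed overnight at 4° C with EGFR and tubulin antibodies, then secondary antibody for 1 hour, and detected by ECL on a Chemidoc.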

Where only a bound is given, the exact number is not on record here.

Chain of EGFR WT (P00533 25-1210): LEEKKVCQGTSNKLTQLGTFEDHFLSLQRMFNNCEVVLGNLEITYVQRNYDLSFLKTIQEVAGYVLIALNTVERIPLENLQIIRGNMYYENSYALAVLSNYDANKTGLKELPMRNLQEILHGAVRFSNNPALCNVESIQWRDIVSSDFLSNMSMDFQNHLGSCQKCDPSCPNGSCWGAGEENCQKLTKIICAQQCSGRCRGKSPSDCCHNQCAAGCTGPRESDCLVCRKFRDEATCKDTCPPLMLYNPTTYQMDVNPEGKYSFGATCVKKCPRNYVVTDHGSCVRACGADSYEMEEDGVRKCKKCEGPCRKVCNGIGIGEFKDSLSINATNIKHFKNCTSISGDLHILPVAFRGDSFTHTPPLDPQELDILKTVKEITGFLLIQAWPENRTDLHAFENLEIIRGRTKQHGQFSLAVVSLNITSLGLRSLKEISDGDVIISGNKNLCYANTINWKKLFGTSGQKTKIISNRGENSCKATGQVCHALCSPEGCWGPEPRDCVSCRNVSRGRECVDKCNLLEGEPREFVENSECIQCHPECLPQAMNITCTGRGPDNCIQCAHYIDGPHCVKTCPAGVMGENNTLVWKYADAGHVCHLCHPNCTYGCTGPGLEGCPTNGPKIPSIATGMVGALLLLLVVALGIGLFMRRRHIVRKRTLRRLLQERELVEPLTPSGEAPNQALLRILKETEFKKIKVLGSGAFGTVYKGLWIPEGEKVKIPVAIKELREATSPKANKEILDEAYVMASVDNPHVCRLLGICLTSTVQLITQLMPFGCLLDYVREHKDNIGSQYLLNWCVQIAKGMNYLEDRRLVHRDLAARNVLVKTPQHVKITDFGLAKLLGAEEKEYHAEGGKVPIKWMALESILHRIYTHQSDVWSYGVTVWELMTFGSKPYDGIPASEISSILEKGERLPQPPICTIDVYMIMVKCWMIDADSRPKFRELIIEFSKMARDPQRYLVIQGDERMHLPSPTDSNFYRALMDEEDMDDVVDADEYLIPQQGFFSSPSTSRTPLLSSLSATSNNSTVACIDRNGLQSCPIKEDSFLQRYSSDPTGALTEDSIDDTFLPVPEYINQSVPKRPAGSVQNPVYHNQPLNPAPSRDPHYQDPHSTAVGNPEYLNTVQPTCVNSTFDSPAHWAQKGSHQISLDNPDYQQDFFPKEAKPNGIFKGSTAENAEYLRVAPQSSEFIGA
Chain of EGFR-wt (MDA-MB-231 or MCF7 or A549 or OVCAR8) (P00533 25-1210): as above
Chain of EGFR Exon20NPG (P00533 other isoform, or with tags, fused parts or gaps del 1-694/ins NPG behind 770 limits assumed): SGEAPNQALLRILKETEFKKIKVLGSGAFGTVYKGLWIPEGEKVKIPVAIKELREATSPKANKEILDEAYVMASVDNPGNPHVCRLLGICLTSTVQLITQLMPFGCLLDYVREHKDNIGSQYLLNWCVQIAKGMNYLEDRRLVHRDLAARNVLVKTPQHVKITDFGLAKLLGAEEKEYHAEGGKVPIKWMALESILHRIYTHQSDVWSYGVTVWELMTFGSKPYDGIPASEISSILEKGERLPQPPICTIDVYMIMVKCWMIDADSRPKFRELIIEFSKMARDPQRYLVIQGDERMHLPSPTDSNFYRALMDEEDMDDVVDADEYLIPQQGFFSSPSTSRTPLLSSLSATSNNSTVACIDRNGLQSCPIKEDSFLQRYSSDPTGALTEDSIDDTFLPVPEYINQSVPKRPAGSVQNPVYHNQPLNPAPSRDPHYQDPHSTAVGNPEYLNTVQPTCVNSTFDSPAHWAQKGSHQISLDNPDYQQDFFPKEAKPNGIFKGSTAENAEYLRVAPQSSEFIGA
Chain of EGFR L858R/T790M (P00533 25-1210 T790M/L858R): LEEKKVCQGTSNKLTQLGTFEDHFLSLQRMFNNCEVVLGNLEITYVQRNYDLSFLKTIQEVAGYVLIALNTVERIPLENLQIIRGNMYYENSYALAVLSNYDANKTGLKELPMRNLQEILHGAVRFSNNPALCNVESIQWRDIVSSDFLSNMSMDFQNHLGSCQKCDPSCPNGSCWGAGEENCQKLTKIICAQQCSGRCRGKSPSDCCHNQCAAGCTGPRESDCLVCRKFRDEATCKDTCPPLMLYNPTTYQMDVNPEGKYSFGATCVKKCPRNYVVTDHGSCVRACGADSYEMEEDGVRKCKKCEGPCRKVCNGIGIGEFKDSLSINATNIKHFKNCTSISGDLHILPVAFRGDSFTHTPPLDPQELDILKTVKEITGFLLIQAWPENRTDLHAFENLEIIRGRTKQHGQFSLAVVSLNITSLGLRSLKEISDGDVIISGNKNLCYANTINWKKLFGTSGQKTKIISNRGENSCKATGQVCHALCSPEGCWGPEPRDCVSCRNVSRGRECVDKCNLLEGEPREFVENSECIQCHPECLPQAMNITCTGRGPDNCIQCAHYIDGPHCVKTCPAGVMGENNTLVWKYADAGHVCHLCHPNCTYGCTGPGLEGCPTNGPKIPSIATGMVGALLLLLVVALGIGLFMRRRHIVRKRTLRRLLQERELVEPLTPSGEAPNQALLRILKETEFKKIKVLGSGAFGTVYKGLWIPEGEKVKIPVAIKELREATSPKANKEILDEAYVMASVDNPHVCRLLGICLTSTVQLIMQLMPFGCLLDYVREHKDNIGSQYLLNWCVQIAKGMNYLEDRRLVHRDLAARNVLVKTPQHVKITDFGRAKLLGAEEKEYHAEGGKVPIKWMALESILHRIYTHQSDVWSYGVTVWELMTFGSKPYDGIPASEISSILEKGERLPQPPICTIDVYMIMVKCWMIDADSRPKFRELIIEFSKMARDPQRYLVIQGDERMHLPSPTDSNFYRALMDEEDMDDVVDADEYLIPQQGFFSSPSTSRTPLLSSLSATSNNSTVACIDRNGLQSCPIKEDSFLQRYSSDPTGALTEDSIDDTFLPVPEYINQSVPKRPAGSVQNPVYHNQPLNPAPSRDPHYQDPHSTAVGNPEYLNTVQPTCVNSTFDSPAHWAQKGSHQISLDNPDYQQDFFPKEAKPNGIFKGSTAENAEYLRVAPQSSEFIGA

For `Cc1ncsc1-c1ccc(CNC(=O)[C@H]2C[C@H](O)CN2C(=O)[C@@H](NC(=O)COCCOCCOc2ccc(-c3ccc4ncnc(Nc5ccc(OCc6cccc(F)c6)c(Cl)c5)c4c3)cc2)C(C)(C)C)cc1` [Example 98, (2R,4S)-1-((S)-2-(2-(2-(2-(4-(4-((3-Chloro-4-((3-fluorobenzyl)oxy)phenyl)amino)quinazolin-6-yl)phenoxy)ethoxy)ethoxy)acetamido)-3,3-dimethylbutanoyl)-4-hydroxy-N-(4-(4-methylthiazol-5-yl)benzyl)pyrrolidine-2-carboxamide], the “EGFR protein remaining, EGFR-wt” value in assay [1] was “C (>80% EGFR protein remaining after 72 hours of incubation with the test compound at a concentration of 300 nM)”.
As for `Cc1ncsc1-c1ccc(CNC(=O)[C@@H]2C[C@@H](O)CN2C(=O)[C@@H](NC(=O)COCCOCCOCCOc2ccc(-c3ccc4ncnc(Nc5ccc(OCc6cccc(F)c6)c(Cl)c5)c4c3)cc2)C(C)(C)C)cc1` [Example 99, (2S,4R)-1-((S)-2-(tert-Butyl)-14-(4-(4-((3-chloro-4-((3-fluorobenzyl)oxy)phenyl)amino)quinazolin-6-yl)phenoxy)-4-oxo-6,9,12-trioxa-3-azatetradecanoyl)-4-hydroxy-N-(4-(4-methylthiazol-5-yl)benzyl)pyrrolidine-2-carboxamide], in assay [1], the “EGFR protein remaining, EGFR-wt” value is “A (≤50% EGFR protein remaining after 72 hours of incubation with the test compound at a concentration between 300 nM and 10 nM)”.
On the same count and under the same terms, under `Cc1ncsc1-c1ccc(CNC(=O)[C@@H]2C[C@H](O)CN2C(=O)[C@@H](NC(=O)COCCOCCOCCOc2ccc(-c3ccc4ncnc(Nc5ccc(OCc6cccc(F)c6)c(Cl)c5)c4c3)cc2)C(C)(C)C)cc1` [Example 100, (2S,4S)-1-((S)-2-(tert-Butyl)-14-(4-(4-((3-chloro-4-((3-fluorobenzyl)oxy)phenyl)amino)quinazolin-6-yl)phenoxy)-4-oxo-6,9,12-trioxa-3-azatetradecanoyl)-4-hydroxy-N-(4-(4-methylthiazol-5-yl)benzyl)pyrrolidine-2-carboxamide] stands “C (>80% EGFR protein remaining after 72 hours of incubation with the test compound at a concentration of 300 nM)”; under `Cc1ncsc1-c1ccc(CNC(=O)[C@@H]2C[C@@H](O)CN2C(=O)[C@@H](NC(=O)COCCOCCOCCOCCOCc2ccc(-c3ccc4ncnc(Nc5ccc(OCc6cccc(F)c6)c(Cl)c5)c4c3)o2)C(C)(C)C)cc1` [Example 320, (2S,4R)-1-((S)-18-(tert-butyl)-1-(5-(4-((3-chloro-4-((3-fluorobenzyl)oxy)phenyl)amino)quinazolin-6-yl)furan-2-yl)-16-oxo-2,5,8,11,14-pentaoxa-17-azanonadecan-19-oyl)-4-hydroxy-N-(4-(4-methylthiazol-5-yl)benzyl)pyrrolidine-2-carboxamide], “A (≤50% EGFR protein remaining after 72 hours of incubation with the test compound at a concentration between 300 nM and 10 nM)”.
Same read-out and setting: under `COc1cc2c(Oc3ccc(N(C(=O)C4(C(N)=O)CC4)c4ccc(F)cc4)cc3F)ccnc2cc1OCCCOCCCOCCC(=O)N[C@H](C(=O)N1C[C@@H](O)C[C@H]1C(=O)NCc1ccc(-c2scnc2C)cc1)C(C)(C)C` [Example 351, N-(3-Fluoro-4-((7-(3-(3-(3-(((S)-1-((2S,4S)-4-hydroxy-2-((4-(4-methylthiazol-5-yl)benzyl)carbamoyl)-pyrrolidin-1-yl)-3,3-dimethyl-1-oxobutan-2-yl)amino)-3-oxopropoxy)propoxy)propoxy)-6-methoxyquinolin-4-yl)oxy)phenyl)-N-(4-fluorophenyl)cyclopropane-1,1-dicarboxamide] stands “C (>80% EGFR protein remaining after 72 hours of incubation with the test compound at a concentration of 300 nM)”.
As to `Cc1ncsc1-c1ccc(CNC(=O)[C@@H]2C[C@@H](O)CN2C(=O)[C@H](C(C)C)N2Cc3ccccc3C2=O)c(OCCOCCOCCOCCOCCOCC#Cc2cccc3c2C(=O)N([C@@H](C(=O)Nc2nccs2)c2cc(F)ccc2O)C3)c1` [compound 260], in assay [2], the “EGFR protein remaining, EGFR L858R/T790M/C797S triple mutant” value is recorded as “C (>80% EGFR protein remaining after 72 hours of incubation with the test compound at a concentration of 300 nM)”. Also, the concentration for half-maximal inhibition (IC50) at EGFR Exon20NPG is over 30 µM; on EGFR L858R/T790M/C797S it was 0.56 µM; at EGFR L858R/T790M it was 20 µM; on EGFR WT, 3.2 µM. In assay [3], the “EGFR protein remaining, EGFR L858R/T790M double mutant” value is “C (>80% EGFR protein remaining after 72 hours of incubation with the test compound at a concentration of 300 nM)”.
`O=C1CCC(N2C(=O)c3ccc(OCCOCCOCC#Cc4cccc5c4C(=O)N([C@@H](C(=O)Nc4nccs4)c4cc(F)ccc4O)C5)cc3C2=O)C(=O)N1` (some centres unmarked) [compound 261]: the “EGFR protein remaining, EGFR L858R/T790M/C797S triple mutant” value in assay [2] is reported as “C (>80% EGFR protein remaining after 72 hours of incubation with the test compound at a concentration of 300 nM)”. In addition, the IC50 worked out at 4.9 µM on EGFR Exon20NPG, 0.18 µM at EGFR L858R/T790M/C797S, 3.5 µM on EGFR L858R/T790M and 2.2 µM at EGFR WT. For the same compound, the “EGFR protein remaining, EGFR L858R/T790M double mutant” value in assay [3] was “C (>80% EGFR protein remaining after 72 hours of incubation with the test compound at a concentration of 300 nM)”.
Consider `O=C1CCC(N2C(=O)c3ccc(OCCOCCOCCOCCOCC#Cc4cccc5c4C(=O)N([C@@H](C(=O)Nc4nccs4)c4cc(F)ccc4O)C5)cc3C2=O)C(=O)N1` (some centres unmarked) [compound 262], for which the “EGFR protein remaining, EGFR L858R/T790M/C797S triple mutant” value in assay [2] is “C (>80% EGFR protein remaining after 72 hours of incubation with the test compound at a concentration of 300 nM)”. Further, the IC50 on EGFR Exon20NPG was 7.4 µM; at EGFR L858R/T790M/C797S it was 0.25 µM; at EGFR L858R/T790M, 0.43 µM; at EGFR WT, 3.7 µM. The “EGFR protein remaining, EGFR L858R/T790M double mutant” value in assay [3] is recorded as “C (>80% EGFR protein remaining after 72 hours of incubation with the test compound at a concentration of 300 nM)”.
Consider `O=C1CCC(N2C(=O)c3cccc(NCCOCCOCCOCC#Cc4cccc5c4C(=O)N([C@@H](C(=O)Nc4nccs4)c4cc(F)ccc4O)C5)c3C2=O)C(=O)N1` (some centres unmarked) [compound 265], for which the “EGFR protein remaining, EGFR L858R/T790M/C797S triple mutant” value in assay [2] is “C (>80% EGFR protein remaining after 72 hours of incubation with the test compound at a concentration of 300 nM)”. Besides, the IC50 was determined as 20 µM at EGFR Exon20NPG, 0.29 µM on EGFR L858R/T790M/C797S, 27 µM on EGFR L858R/T790M and 3.6 µM on EGFR WT. The “EGFR protein remaining, EGFR L858R/T790M double mutant” value in assay [3] is recorded as “C (>80% EGFR protein remaining after 72 hours of incubation with the test compound at a concentration of 300 nM)”.
On to `O=C1CCC(N2C(=O)c3cccc(NCCOCCOCCOCCOCC#Cc4cccc5c4C(=O)N([C@@H](C(=O)Nc4nccs4)c4cc(F)ccc4O)C5)c3C2=O)C(=O)N1` (some centres unmarked) [compound 266], for which the “EGFR protein remaining, EGFR L858R/T790M/C797S triple mutant” value in assay [2] is recorded as “C (>80% EGFR protein remaining after 72 hours of incubation with the test compound at a concentration of 300 nM)”. In addition, the IC50 at EGFR Exon20NPG is over 30 µM; on EGFR L858R/T790M/C797S, 2.6 µM; on EGFR L858R/T790M, over 30 µM; at EGFR WT it was 10 µM. Further, the “EGFR protein remaining, EGFR L858R/T790M double mutant” value in assay [3] is on record as “C (>80% EGFR protein remaining after 72 hours of incubation with the test compound at a concentration of 300 nM)”.
In the case of `O=C1CCC(N2C(=O)c3cccc(NCCOCCOCCOCCOCCOCC#Cc4cccc5c4C(=O)N([C@@H](C(=O)Nc4nccs4)c4cc(F)ccc4O)C5)c3C2=O)C(=O)N1` (some centres unmarked) [compound 267], in assay [2], the “EGFR protein remaining, EGFR L858R/T790M/C797S triple mutant” value was “C (>80% EGFR protein remaining after 72 hours of incubation with the test compound at a concentration of 300 nM)”. The IC50 at EGFR Exon20NPG turned out to be 30 µM; on EGFR L858R/T790M/C797S it was 1.4 µM; at EGFR L858R/T790M, 30 µM; on EGFR WT it was 30 µM. In addition, the “EGFR protein remaining, EGFR L858R/T790M double mutant” value in assay [3] is given as “C (>80% EGFR protein remaining after 72 hours of incubation with the test compound at a concentration of 300 nM)”.

As usually defined, the IC50 is the concentration needed to halve the response being measured.
